Calls of active or inactive are those of the source. The calls are words filed in the database; no cut-off is given here.

One series deals with Choline kinase alpha (Homo sapiens, UniProt P35790). Description: Inhibition of human Choline kinase alpha 1 incubated for 10 mins by liquid-scintillation counter analysis. Conditions: read-out: IC50.
Another series relates to A549. The series can be described thus: Antiproliferative activity against human A549 cells assessed as inhibition of cell growth incubated for 72 hrs. The class given is functional.
Another series relates to HeLa. Description: Antiproliferative activity against human HeLa cells assessed as inhibition of cell growth incubated for 72 hrs. The class given is functional.
The subject of a further series is HT-29. The series can be described thus: Antiproliferative activity against human HT-29 cells assessed as inhibition of cell growth incubated for 72 hrs. The class given is functional.
The subject of a further series is MDA-MB-231. Description: Antiproliferative activity against human MDA-MB-231 cells assessed as inhibition of cell growth incubated for 72 hrs. In kind it is functional.
A further series has as its system MCF7. The series can be described thus: Antiproliferative activity against human MCF7 cells assessed as inhibition of cell growth incubated for 72 hrs. The class given is functional.
A short description of series [1]: Drug localization in cytosol of human MCF7 cells assessed as increase in fluorescence intensity at 8 uM by microscopic analysis. In kind it is ADME, subcellular.
A further series relates to Cell membrane. Description: Induction of cell membrane disruption in human MCF7 cells at 8 uM measured after 90 mins. In kind it is subcellular.
A short description of series [2]: Drug localization in cytosol of human MCF7 cells assessed as increase in fluorescence intensity at 8 uM measured after 15 mins by microscopic analysis. In kind it is ADME, subcellular. Conditions: 0.25 h.

Chain of Choline kinase alpha (P35790 whole entry): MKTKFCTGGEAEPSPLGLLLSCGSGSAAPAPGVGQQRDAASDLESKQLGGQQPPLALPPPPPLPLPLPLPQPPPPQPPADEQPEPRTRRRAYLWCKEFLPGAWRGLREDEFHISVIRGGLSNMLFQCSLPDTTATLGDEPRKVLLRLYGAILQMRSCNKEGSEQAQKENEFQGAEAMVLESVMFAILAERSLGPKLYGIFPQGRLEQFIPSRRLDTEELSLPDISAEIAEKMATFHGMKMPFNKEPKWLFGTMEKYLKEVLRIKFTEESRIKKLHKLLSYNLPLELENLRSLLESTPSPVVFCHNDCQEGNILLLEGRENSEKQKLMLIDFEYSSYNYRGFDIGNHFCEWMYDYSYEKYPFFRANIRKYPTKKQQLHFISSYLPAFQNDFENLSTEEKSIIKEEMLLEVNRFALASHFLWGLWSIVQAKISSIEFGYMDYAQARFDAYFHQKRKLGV

As for `[Br-].[Br-].c1cc2c(s1)c(N1CCCC1)nc[n+]2Cc1ccc(SCCSc2ccc(C[n+]3cnc(N4CCCC4)c4sccc43)cc2)cc1`, the IC50 on Choline kinase alpha amounted to 1.35 µM. For the same molecule, the GI50 in the series on A549 turned out to be 0.44 µM; with HeLa, 10.1 µM; with HT-29, 2.63 µM; in the series with MDA-MB-231, 1.63 µM; in the series on MCF7 it was 4.34 µM. Moreover, the Drug uptake result in [1] and in series [2] was “Active” in each case. Also, the result in the series on Cell membrane was inactive.

For orientation: IC50 means the midpoint of a concentration-inhibition curve. By GI50 is commonly meant the concentration that inhibits growth by half.

For the origin of these results see ChEMBL document CHEMBL5352466, “New bioisosteric sulphur-containing choline kinase inhibitors with a tracked mode of action” (Eur J Med Chem, 2023).
